Assay results as given in US20230295236A1, “COMPOUNDS FOR USE IN INFLAMMATORY CONDITIONS” (priority 2020, published 2023).
Read-outs that look alike come from different tables or passages of the source.

Experiments:
[1] = molecular target: eEF1A purified from rabbit muscle (Oryctolagus cuniculus, UniProt Q71V39); assay: Binding of 14C-plitidepsin to purified eEF1A
[2] = tested on: WNV-GFP (lineage 2; molecular clone WN956)
[3] = Pharmacokinetics in patients; assay type: in vivo; conditions: both sexes, plasma, Human (M/F), 0.135 mg/kg (Recommended Dose 5 mg/m2), 3-h intravenous infusion
alveolar macrophages = assay: LPS animal inflammation model: macrophages in bronchoalveolar lavage by flow cytometry; assay type: in vivo, mouse; conditions: mice 1 mg/kg single i.v., LPS 20 µg/kg i.p.
Text: Three hours later, bronchoalveolar lavages were collected.

[4] = Cell biomass (DAPI) in Vero-E6 cells; assay type: cell-based, African green monkey; conditions: African green monkey, Vero-E6 cells, VeroE6 cells, read-out: CC50 based on cell biomass
Experimental: (§1) Relative infection efficiency was assessed by automated fluorescence microscopy in the green channel and overall cell biomass/well was estimated by nuclear staining with DAPI in the blue channel, as a preliminary assessment of the compound effective doses as well as overall compound cytotoxicity.
(§2) Cells were fixed by addition of a 5X formaldehyde solution to achieve a 4% final concentration for 30 mins at room temperature. Cells were washed with PBS and stained with DAPI (4′,6-diamidino-2-phenylindole) following manufacturer’s recommendations. Relative infection efficiency was estimated by image analysis in an automated microscopy device (Tecan Spark Cyto). Uninfected cells and vehicle-treated controls were included in each plate.

Vero-E6 cells = assay: Cell biomass (DAPI) in Vero-E6 cells; assay type: cell-based, African green monkey; conditions: VeroE6 cells, 48 hours
Experimental: as §1, §2

NF-κB = NF-κB transactivation luciferase assay in THP-1 NF-κB-Luc cells; assay type: cell-based, human; conditions: 100 nM plitidepsin, 6 hours; with poly I:C, LPS-B5 or Resiquimod (TLR ligands)
Experimental: Luminescence was measured in a Perkin-Elmer EnVision reader.

[5] = Stability of plitidepsin drug product and reconstituted solution; assay type: physicochemical
Experimental: Plitidepsin will be labelled with the study protocol code, the batch number, the content, the expiry date, the storage conditions, the name of the investigator and the sponsor. The study drug will be labelled in accordance with Annex 13 of the European Good Manufacturing Practices. Plitidepsin should be stored between 2° C. and 8° C. and the vials should be kept in the outer carton to protect them from light. The drug in these conditions is stable for 60 months.
After reconstitution of the 2 mg plitidepsin vial with 4 ml of the solution for reconstitution of macrogolglycerol ricinoleate/ethanol/water for injection, the reconstituted solution should be diluted and used immediately after preparation. If not used immediately, storage times and conditions until use are the responsibility of the user. […] If storage is required before administration, solutions should be stored refrigerated and protected from light and should be used within 24 hours after reconstitution.

WNV-NY99 (lineage 1) [6] = conditions: Huh-7 cells
SARS-CoV-2 [7] = assay: APLICOV-PC clinical study in patients hospitalised for COVID-19: efficacy; assay type: in vivo, human
SARS-CoV-2 [8] = assay: SARS-CoV-2 replication in human stem cell-derived pneumocyte like cells; assay type: cell-based; conditions: 10 nm plitidepsin for 1 hour before infection; 48 hour incubation
Experimental: Several in vitro experiments aimed at determining the effect of plitidepsin on SARS-CoV-2 were carried out and are disclosed herein. […] In another study, human stem cell-derived pneumocyte like cells were prophylactically exposed to 10 nm plitidepsin for 1 hour and then infected with SARS-CoV-2 (4 × 10^4 plaque forming units). After a 48 hour incubation period, both antiviral and cytotoxic plitidepsin effects were determined.

SARS-CoV-2 [9] = assay: SARS-CoV-2 cytopathic effect in Vero E6 cells (CellTiter-Glo); assay type: cell-based; conditions: Severe acute respiratory syndrome coronavirus 2, Vero C1008, 72 h, 3 days post infection, two experiments with two replicates each, read-out: IC50 viral-induced cytopathic effect (mean and standard deviation)
Experimental: Vero E6 cells (ATCC CRL-1586) were cultured in Dulbecco’s modified Eagle medium, (DMEM; Lonza) supplemented with 5% fetal calf serum (FCS; EuroClone), 100 U/mL penicillin, 100 µg/mL streptomycin, and 2 mM glutamine (all ThermoFisher Scientific).
Plitidepsin was used at a concentration ranging from 100 µM to 0.0512 nM at ⅕ serial dilutions, and also assayed from 10 µM to 0.5 nM at ⅓ dilutions.
Increasing concentrations of Plitidepsin was added to Vero E6 cells together with 10^1.8 TCID50/mL of SARS-CoV-2, a concentration that achieves a 50% of cytopathic effect. Non-exposed cells were used as negative controls of infection. In order to detect any drug-associated cytotoxic effect, Vero E6 cells were equally cultured in the presence of increasing drug concentrations, but in the absence of virus. Cytopathic or cytotoxic effects of the virus or drugs were measured at 3 days post infection, using the CellTiter-Glo luminescent cell viability assay (Promega). Luminescence was measured in a Fluoroskan Ascent FL luminometer (ThermoFisher Scientific).
Response curves were adjusted to a non-linear fit regression model, calculated with a four-parameter logistic curve with variable slope. […] Statistical differences from 100% were assessed with a one sample t test. […]

SARS-CoV-2 [10] = assay: SARS-CoV-2 dose-response curve analysis by immunofluorescence in Vero cells
WNV-NY99 (lineage 1) [11] = assay type: cell-based, West Nile virus; conditions: for Intracellular WNV RNA load (RT-qPCR): Vero-E6 cells

Sequence of eEF1A purified from rabbit muscle (Q71V39 whole entry): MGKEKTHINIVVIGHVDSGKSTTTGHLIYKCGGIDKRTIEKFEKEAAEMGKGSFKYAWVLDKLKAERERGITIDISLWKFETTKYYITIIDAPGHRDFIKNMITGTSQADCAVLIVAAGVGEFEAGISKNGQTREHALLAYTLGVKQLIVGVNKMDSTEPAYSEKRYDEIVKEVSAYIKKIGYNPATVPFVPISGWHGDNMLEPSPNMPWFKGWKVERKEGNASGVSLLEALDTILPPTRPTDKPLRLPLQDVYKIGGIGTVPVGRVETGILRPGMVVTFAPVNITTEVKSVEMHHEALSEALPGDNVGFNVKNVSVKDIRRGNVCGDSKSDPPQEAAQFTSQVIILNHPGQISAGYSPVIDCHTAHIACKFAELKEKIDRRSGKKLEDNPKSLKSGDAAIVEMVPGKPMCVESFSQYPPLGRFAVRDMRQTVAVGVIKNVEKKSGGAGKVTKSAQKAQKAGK

Compound: CC[C@H](C)[C@H]1NC(=O)[C@@H](NC(=O)[C@@H](CC(C)C)N(C)C(=O)[C@@H]2CCCN2C(=O)C(C)=O)[C@@H](C)OC(=O)[C@H](Cc2ccc(OC)cc2)N(C)C(=O)[C@@H]2CCCN2C(=O)[C@H](CC(C)C)NC(=O)[C@@H](C)C(=O)[C@H](C(C)C)OC(=O)C[C@@H]1O [plitidepsin]
- Binding affinity to eEF1A [1]: high affinity
- Rate of dissociation from eEF1A [1]: low rate of dissociation
- Concentration with antiviral activity in the absence of measurable interference with cell viability (p<0.05) ([2]; Vero-E6 cells): 7.2 nM
- Therapeutic index (CC50/EC50) ([2]; VeroE6 cells): 475
- Concentration reaching background fluorescence levels ([2]; VeroE6 cells, 48 hours): ≥ 36 nM
- AUC(0-inf) [3]: 256 ng·h/mL
- Cmax [3]: 29.1 ng/mL
- clearance [3]: 11.7 to 15 mL/min/kg
- Vd ([3]; read-out: Vdss): 29 to 33 L/kg
- half-life ([3]; read-out: t½): 1200 to 4800 min
- Macrophages in bronchoalveolar lavage (alveolar macrophages): decrease the percentage of macrophages presents on bronchoalveolar lavage without cytotoxic effects
- CC50 at 48 h [4]: 2330 nM
- Concentration up to which cell number remained unchanged (Vero-E6 cells): up to 36 nM
- NF-κB transactivation (luciferase activity) (NF-κB): clearly inhibited the production of luciferase
- Physical, chemical and microbiological stability of reconstituted concentrated solution ([5]; original vial under indoor light at room temperature): 6 hours
- Physical, chemical and microbiological stability of reconstituted concentrated solution ([5]; refrigerated conditions (5° C.±3° C.)): 24 hours
- Stability of the drug (vials) ([5]; stored between 2° C. and 8° C., protected from light): 60 months
- Intracellular WNV RNA load (RT-qPCR) (WNV-NY99 (lineage 1) [6]; 15 nM): marked reduction in viral load
- Total cellular RNA recovery (WNV-NY99 (lineage 1) [6]; 45 nM): no RNA could be recovered
- Reduction of extracellular infectivity titers (WNV-NY99 (lineage 1) [6]; 45 nM, 48 hours): > 3 orders of magnitude
- Mean time from baseline until undetectable viral load (SARS-CoV-2 [7]): 11 days
- Mortality from Day 1 to Day 7 (SARS-CoV-2 [7]): 0 n (%)
- Mortality from Day 1 to Day 15 (SARS-CoV-2 [7]): 0 n (%)
- Mortality from Day 1 to Day 31 (SARS-CoV-2 [7]): 2 (4.5) n (%)
- Patients requiring ICU admission from Day 1 to Day 7 (SARS-CoV-2 [7]): 5 (11.4) n (%)
- Patients requiring ICU admission from Day 1 to Day 15 (SARS-CoV-2 [7]): 6 (13.6) n (%)
- Patients requiring ICU admission from Day 1 to Day 31 (SARS-CoV-2 [7]): 6 (13.6) n (%)
- Patients requiring invasive mechanical ventilation and/or ICU admission from Day 1 to Day 7 (SARS-CoV-2 [7]): 5 (11.4) n (%)
- Patients requiring invasive mechanical ventilation and/or ICU admission from Day 1 to Day 15 (SARS-CoV-2 [7]): 6 (13.6) n (%)
- Patients requiring invasive mechanical ventilation and/or ICU admission from Day 1 to Day 31 (SARS-CoV-2 [7]): 6 (13.6) n (%)
- Patients requiring noninvasive mechanical ventilation from Day 1 to Day 7 (SARS-CoV-2 [7]): 4(9.1) n (%)
- Patients requiring noninvasive mechanical ventilation from Day 1 to Day 15 (SARS-CoV-2 [7]): 5 (11.4) n (%)
- Patients requiring noninvasive mechanical ventilation from Day 1 to Day 31 (SARS-CoV-2 [7]): 6 (13.6) n (%)
- Mean change in viral load from baseline to Day 4 (SARS-CoV-2 [7]; 96 h): -1.90 log10 copies/mL
- Mean change in viral load from baseline to Day 7 (SARS-CoV-2 [7]; 168 h): -3.07 log10 copies/mL
- Mean reduction in viral load (SARS-CoV-2 [7]; 168 h): -3.1 log10 copies/mL
- Patients requiring oxygen therapy at Day 7 (SARS-CoV-2 [7]; 168 h): 31 (70.5) n (%)
- Patients discharged from hospital by Day 8 (SARS-CoV-2 [7]; 192 h): 25 (56.8) n (%)
- Mean change in viral load from baseline to Day 15 (SARS-CoV-2 [7]; 360 h): -4.48 log10 copies/mL
- Mean reduction in viral load (SARS-CoV-2 [7]; 360 h): -4.5 log10 copies/mL
- Patients discharged from hospital by Day 15 (SARS-CoV-2 [7]; 360 h): 36 (81.8) n (%)
- Patients requiring oxygen therapy at Day 15 (SARS-CoV-2 [7]; 360 h): 9 (20.5) n (%)
- Reduction in viral load (SARS-CoV-2 [7]; 360 h): -3.0 log
- Mean change in viral load from baseline to Day 31 (SARS-CoV-2 [7]; 744 h): -5.27 log10 copies/mL
- Patients discharged from hospital by Day 31 (SARS-CoV-2 [7]; 744 h): 40 (90.9) n (%)
- Patients requiring oxygen therapy at Day 31 (SARS-CoV-2 [7]; 744 h): 3 (6.8) n (%)
- SARS-CoV-2 replication (SARS-CoV-2 [8]): completely eliminated replication of SARS-CoV-2
- IC50 (SARS-CoV-2 [9]): 60 ± 20 nM
- SI (SARS-CoV-2 [10]): 49.95-129.92
- IC50 (SARS-CoV-2 [10]; read-out: IC50 inhibition of virus infection, Vero cells, MOI 0.0125, 24 hpi, three repeats): 3.3 to 3.9 nM
- Reduction of extracellular infectivity titers (WNV-NY99 (lineage 1) [11]; 45 nM, VeroE6 cells, 48 hours): > 3 orders of magnitude
- Intracellular WNV RNA load (RT-qPCR) (WNV-NY99 (lineage 1) [11]; 5 and 1.5 nM): not distinguishable from those in the control
- Intracellular WNV RNA load (RT-qPCR) (WNV-NY99 (lineage 1) [11]; 15 and 45 nM): significantly decreased in a dose-dependent manner
